Consider 1 substance from US5830994A, “Peptide derivatives of alpha-MSH and their application” (Institut Europeen De Biologie Cellulaire, priority 1993, dated 1998).

For experiment [1], the system named is TNF-α. The experiment is described as follows: Inhibition of TNF-α induced by LPS in mice (DAYNES technique), serum ELISA. Type of experiment: in vivo. As for the experimental part:
This anti-inflammatory activity was complemented by a study of the immunosuppressive activity of PIV against Tumor Necrosis Factor-α.
Inhibition of the activity of TNF-α by the Peptide PIV
The DAYNES techniques described in Example 8 are used.
(§1) 40 μg of PIV in 0.2 ml of physiological saline--that is to say 200 μg/ml
25 μg of PIV in 0.2 ml of physiological saline--that is to say 125 μg/ml
(§2) 10 μg of PIV in 0.2 ml of physiological saline--that is to say 50 μg/ml
It was carried out on mice separated into 5 batches of 5 animals
The animals in the control batches receive an injection of 0.2 ml of physiological saline intravenously. The animals in the PIV batches receive an injection of the product at various dosages intravenously. (Caudal vein)
Immediately after the treatment of the mice, a sublethal dose of LPS (1.2 mg in 0.2 ml of physiological saline) is intraperitoneally injected into each animal in the batches and positive control.
Ninety minutes later, all the mice are punctured through the retroorbital sinuses on dry tubes. As soon as the blood coagulates, the clot is detached. The blood is centrifuged for 10 minutes at 10° C. at 1800 g.
The sera once collected are frozen at -25° C.
The TNF-α contained in these sera is assayed 24 hours after the sampling with the murine TNF-α ELISA assay Kit (ref. 1509-00 GENZYME)
(§3) Rapid description of the Kit: the method used for this assay is of the sandwich type.
A first anti-murine TNF-A monoclonal antibody is used.
The samples are then deposited and then a second anti-TNF-α goat antibody is caused to react.
The colored reaction uses o-phenylenediamine (OPD).
The reading is made at 492 nm with a plate reader (TITERTEK MKII MCC 340)
In general terms: ELISA stands for enzyme-linked immunosorbent assay.

The test system of experiment [2] is PGE2 production by MRC5 fibroblasts stimulated by IL1. The experiment is described as follows: PGE2 production by fibroblasts stimulated by IL1 (RIA). Type of experiment: cell-based, human. To be noted: for % inhibition (PGE2) / PGE2: IL1:5 ng. As for the experimental part:
2-1 Culture of embryonic pulmonary fibroplasts [sic] of human origin:
We chose to use the strain ATCC MRC5 maintained in the laboratory continuously and already tested by Cannon et al. (J. Immunol., 1986).
After subculturing, the fibroplasts [sic] are cultured in microwells (24-well plate of 2 cm2, Falcon). The innoculum is 30 000 cells per well; the nutrient medium used is composed of RPMI 1640 (90%) and of complement-free fetal calf serum (FCS, 10%). The medium is changed every two days until the cells become confluent.
The monocell layers thus obtained are washed and preincubated for 24 hours in fresh medium containing only 1% of FCS. […] After incubating for 20 minutes in the presence of these compounds, human recombinant IL1 (Tebu, France) at a concentration of 5, 2.5 or 0.5 ng/ml of medium is placed in contact with cells for 18 hours.
At the end of this incubation, the supernatants are collected and frozen at -80° C. until the analysis is carried out. The monocell layers are fixed with methanol.
The RIA assay is carried out according to the method described by Dray et al. (Europ. J. Invest. 1975). 3 series of experiments, in duplicate, were carried out for each concentration of product studied and for the controls. The results are expressed in pg/μg of DNA. The inhibitory effect is expressed in percentage relative to the controls.
In order to avoid any possible error due to the counting by optical microscopy, the DNA was assayed by a fluorimetric method according to the procedure described by Brunk et al. (Analytical Biochem., 1979).

Experiment [3] relates to Interleukin-1α. The experiment in a line: Inhibition of the synthesis of Interleukin 1 (IL1α) induced by LPS in mice, serum ELISA. Type of experiment: in vivo, BALB/C mice. As for the experimental part: Study of the immunosuppressive activity of the derivative compound 4 on the inhibition of the synthesis of Interleukin 1 "IL1" in mice.
The secretion of IL1 is induced by the parenteral administration of lipopolysaccharides "LPS" to BALB/C mice.
Compound 4 (P-IV) is dissolved in physiological saline. It is assayed quantitatively by spectrophotometry at 280 nm (assay of Tryptophan) which allows an accurate assay of "P-IV" in the solutions which are stored at -25° C.
Extracts of Escherichia Coli serotype 0127 - B8 -"Ref. SIGMA - L3137" are used at the concentration of 6 mg/ml in physiological saline.
BALB/C mice--females--5 weeks old, obtained from IFFA - CREDO subjected to a photoperiod of 12 hours of light per 24 hours water and feed ad libitum
the other based on a single treatment, consequently much more rapid, will serve for the control of the PIV activity ("DAYNES" technique).
The animals in the control batches receive an injection of 0.2 ml of physiological saline subcutaneously, the animals in the PIV batches receive an injection of the product at various dosages subcutaneously. This treatment takes place for 5 days.
Forty-eight hours after the treatment with PIV, a sublethal dose of LPS (1.2 mg in 0.2 ml of physiological saline) is injected intraperitoneally into each animal in the PIV batches and in the positive control batch.
One hundred and eighty minutes later, all the mice were punctured through the retroorbital sinuses on dry tubes. As soon as the blood coagulates, the clot is detached. The blood is centrifuged for 10 minutes at 1800 g at a temperature of 10° C.
as §1
25 Ag of PIV in 0.2 ml of physiological saline--that is to say 125 μg/ml
as §2
The animals in the control batches receive an injection of 0.2 ml of physiological saline intravenously.
The animals in the PIV batches receive an injection of the product at various dosages intravenously. (Caudal vein)
Immediately afterwards, a sublethal dose of LPS (1.2 mg years [sic] 0.2 ml of physiological saline) is injected intraperitoneally into each animal in the PIV batches and into the positive control batches.
One hundred and eighty minutes later, all the mice are punctured through the retroorbital sinuses on dry tubes. As soon as the blood coagulates, the clot is detached. The blood is centrifuged for 10 minutes at 1800 g at a temperature of 10° C. The sera once collected are frozen at -25° C.
The Interleukin-1α contained in these sera is assayed 24 hours after the sampling with the murine IL1α ELISA assay Kit (ref. 1900 GENZYME)
as §3
A first anti-murine IL1α monoclonal antibody is used
The samples are then deposited, then a second biotinylated anti-IL1α antibody is caused to react.
The coloured reaction uses tetramethylbenzidine (TMB)
The reading is made at 450 nm on a MULTISKAN MCC 340 MKII (TITERTEK) plate reader.

Setting [4] is: all dosages, all the five studies.

For “[(DL) Lip] His - D.homoPhe - Arg - Trp - NH2 [PIV]”, the “mean decreases in TNF-α” value in experiment [1] (50 μg/ml, five studies) was 37%; in experiment [1] (125 μg/ml, five studies) it was 40%; in experiment [1] (200 μg/ml, five studies) it was 46%; in experiment [1] (setting [4]) it was approximately 40%. For the same substance, the “immunosuppressive activity against Tumor Necrosis Factor-α” value in experiment [1] (complementary study reported in Example 8) is recorded as -40%. Besides, the “% inhibition (PGE2)” value in experiment [2] (10^-4 M) stood at 60%; in experiment [2] (10^-5 M), 38%; in experiment [2] (10^-6 M), 34%; in experiment [2] (10^-7 M), 17%; in experiment [2] (10^-8 M), 17%; in experiment [2] (10^-9 M), 32%. Also, the PGE2 in experiment [2] (10^-4 M) is given as 2964 ± 184 pg/mg of DNA; in experiment [2] (10^-5 M), 4580 ± 230 pg/mg of DNA; in experiment [2] (10^-6 M), 4900 ± 340 pg/mg of DNA; in experiment [2] (10^-7 M), 6150 ± 365 pg/mg of DNA; in experiment [2] (10^-8 M), 6142 ± 255 pg/mg of DNA; in experiment [2] (10^-9 M), 5047 ± 279 pg/mg of DNA. Besides, the “inhibitory action on IL1-stimulated PGE2 production (in words)” value in experiment [2] (overall) was “possess an inhibitory power”. Further, the “mean decreases in IL1α” value is 50% in experiment [3] (50 μg/ml, five studies); 50% in experiment [3] (125 μg/ml, five studies); 60% in experiment [3] (200 μg/ml, five studies); approximately 55% in experiment [3] (setting [4]). In experiment [3] (with the two methodologies used (SHEEHAN and DAYNES)), the “decrease in the synthesis of Interleukin-1α relative to the control” value is given as “at least 50%”.
